Reference: patent US5677291A, “Method of lowering serum cholesterol levels with 2,6-di-alkyl-4-silyl-phenols” (Hoechst Marion Roussel, Inc., priority 1996, dated 1997)

Columns and labels:
Assay type in all cases: in vivo, New Zealand White rabbit
[1] = system: 0.2% Cholesterol-Fed New Zealand White Rabbits; assay: Liver weight / body weight ratio in 0.2% cholesterol-fed rabbits, concurrent 0.4% drug (Example 20); details: 0.2% cholesterol/0.4% drug diet
Text: (§1) NZW rabbits (female, aged 3-4 months, weighing less than 3 Kg), six in each group, were fed a control diet of 0.2% cholesterol (100 g rabbit chow daily containing 0.2 g cholesterol) or a diet of 0.2% cholesterol/0.4% drug (100 g rabbit chow daily containing 0.2 g cholesterol and 0.4 g of drag). For Compound A, the rabbits were sacrificed by intravenous injection of pentobarbital after 56 days. For Compound G, K, E and H, the rabbits were sacrificed by intravenous injection of pentobarbital after 7 days. Plasma or serum was collected and cholesterol levels were determined using the enzymatic method of Mao, et at., Clin. Chem. (1983) 29:1890-1897. Liver weight and body weights were determined. Serum HDL and LDL cholesterol levels were determined using gel filtration HPLC modified from Kieft, K. A., et at., J. Lipid Res., 32:859-861 (1991), using Roche enzymatic cholesterol reagents. Triglyceride levels were determined by Cobas Automated Analyzer using Roche enzymatic reagents.

[2] = system: 0.2% Cholesterol-Fed New Zealand White Rabbits; assay: Serum total, LDL and HDL cholesterol and triglycerides in 0.2% cholesterol-fed rabbits, concurrent 0.4% drug (Example 20); design: triglycerides: reference not given here; details: 0.2% cholesterol/0.4% drug diet; for cholesterol (total) % Control / HDL cholesterol % Control / LDL cholesterol % Control: % of control; for HDL cholesterol % Control / LDL cholesterol % Control: serum, gel filtration HPLC
Text: as §1

[3] = system: 1% Cholesterol-Fed New Zealand White Rabbits; assay: Reduction of cholesterol levels of 1% cholesterol-fed rabbits by concurrent administration of 0.5% Compound A (Example 18); details: 1% cholesterol/0.5% drug diet; for Cholesterol: plasma or serum, n = 6
Protocol: New Zealand Whim (NZW) rabbits (female, aged 3-4 months, weighing less than 3 kg) six in each group, were fed a control diet of 1% cholesterol (100 g rabbit chow daily containing 1 g cholesterol) or a diet of 1% cholesterol/0.5% drag (100 g rabbit chow daily containing 1 g cholesterol and 0.5 g Compound A). After 56 days, the rabbits were sacrificed by intravenous injection of pentobarbital. Plasma or serum was collected and cholesterol levels were determined using the enzymatic method of Mao, et at., Clin. Chem. (1983) 29:1890-1897.

[4] = system: 0.2% Cholesterol-Fed New Zealand White Rabbits; assay: Reduction of cholesterol levels of 0.2% cholesterol-fed rabbits by concurrent administration of 0.4% Compound A (Example 19); details: for Cholesterol: plasma or serum, n = 6
Protocol: NZW rabbits (female, aged 3-4 months, weighing less than 3 Kg), six in each group, were fed a control diet of 0.2% cholesterol (100 g rabbit chow daily containing 0.2 g cholesterol) or a diet of 0.2% cholesterol/0.4% drag (100 g rabbit chow daily containing 0.2 g cholesterol and 0.4 g Compound A). After 56 days, the rabbits were sacrificed by intravenous injection of pentobarbital. Plasma or serum was collected and cholesterol levels were determined using the enzymatic method of Mao, et at., Clin. Chem. (1983) 29: 1890-1897.

[5] = system: Normolipidemic New Zealand Rabbits; assay: Reduction in cholesterol levels of normolipidemic rabbits by concurrent administration of 0.5% Compound A (Example 21); details: normal diet with 0.5% drug; for Cholesterol: serum, n = 4
Protocol: New Zealand White rabbits (female, aged 3-4 months, weighing less than 3 kg), four in each group, were fed a normal diet (100 g rabbit chow daily) or a diet of 0.5% drug (100 g rabbit chow daily containing 0.5 g Compound A). Serum was collected and cholesterol levels were determined according to the method of Mao, et at., Clin. Chem. (1983) 29:1890-1897.

## COc1ccc([Si](C)(C)COc2cc(C(C)(C)C)c(O)c(C(C)(C)C)c2)cc1 [Compound H, 2,6-Di-t-butyl-4[(dimethyl-4-methoxyphenylsilyl)methyloxy]phenol]
[1]; 7 days
  liver wt/body wt ratio: 110%
[2]; 7 days
  triglycerides: 73%
  cholesterol (total) % Control: 54%
  HDL cholesterol % Control: 123%
  LDL cholesterol % Control: 66%

## CC(C)(C)c1cc(SC[Si](C)(C)c2ccccc2)cc(C(C)(C)C)c1O [Compound A, 2,6-Di-t-butyl-4[(dimethylphenylsilyl)methylthio]phenol]
[3]; day 0
  Cholesterol: 59 ± 8 mg/dL
[3]; day 14
  Cholesterol: 684 ± 99 mg/dL
[3]; day 28
  Cholesterol: 954 ± 126 mg/dL
[3]; day 42
  Cholesterol: 1118 ± 164 mg/dL
[3]; day 56
  Cholesterol: 1035 ± 152 mg/dL
[3]; day 56, vs control
  reduction of serum cholesterol: 57%
[4]; 56 days, 0.2% cholesterol/0.4% drug diet
  reduction of cholesterol: 64%
[4]; administration for 56 days, 0.2% cholesterol-fed rabbits
  cholesterol lowering (in words): significant cholesterol lowering
[4]; day 0, 0.2% cholesterol/0.4% drug diet
  Cholesterol: 66 ± 8 mg/dL
[4]; day 7, 0.2% cholesterol/0.4% drug diet
  Cholesterol: 154 ± 17 mg/dL
[4]; day 14, 0.2% cholesterol/0.4% drug diet
  Cholesterol: 223 ± 32 mg/dL
[4]; day 28, 0.2% cholesterol/0.4% drug diet
  Cholesterol: 291 ± 59 mg/dL
[4]; day 42, 0.2% cholesterol/0.4% drug diet
  Cholesterol: 357 ± 89 mg/dL
[4]; day 56, 0.2% cholesterol/0.4% drug diet
  Cholesterol: 337 ± 100 mg/dL
[1]; 56 days
  liver wt/body wt ratio: 120%
[2]; 56 days
  triglycerides: 366%
  cholesterol (total) % Control: 52%
  HDL cholesterol % Control: 75%
  LDL cholesterol % Control: 42%
[5]; day 0
  Cholesterol: 43.5 ± 4 mg/dL
[5]; day 8
  Cholesterol: 69.7 ± 6 mg/dL
[5]; day 14
  Cholesterol: 54.8 ± 8 mg/dL
[5]; day 23, compared to control rabbits
  level of cholesterol significantly reduced by: about 29%
[5]; day 23
  Cholesterol: 58.3 ± 6 mg/dL

## CC(C)(C)c1cc(OC[Si](C)(C)c2ccccc2)cc(C(C)(C)C)c1O [Compound G]
[1]; 7 days
  liver wt/body wt ratio: 104%
[2]; 7 days
  triglycerides: 104%
  cholesterol (total) % Control: 72%
  HDL cholesterol % Control: 81%
  LDL cholesterol % Control: 69%

## COc1ccccc1[Si](C)(C)COc1cc(C(C)(C)C)c(O)c(C(C)(C)C)c1 [Compound K, 2,6-Di-t-butyl-4-[(dimethy 1-2-methoxyphenylsilyl)methyloxy]phenol]
[1]; 7 days
  liver wt/body wt ratio: 90%
[2]; 7 days
  triglycerides: 131%
  cholesterol (total) % Control: 77%
  HDL cholesterol % Control: 217%
  LDL cholesterol % Control: 61%

## CC(C)(C)c1cc(OC[Si](C)(C)c2ccc(Cl)cc2)cc(C(C)(C)C)c1O [E, 2,6 Di-t-butyl-4[(4-chlorophenyldimethylsilyl)methyloxy]phenol]
[1]; 7 days
  liver wt/body wt ratio: 93%
[2]; 7 days
  triglycerides: 82%
  cholesterol (total) % Control: 87%
  HDL cholesterol % Control: 109%
  LDL cholesterol % Control: 89%
